Assay results reported in ChEMBL document CHEMBL2311470, “Heterobivalent dual-target probe for targeting GRP and Y1 receptors on tumor cells” (Bioorg Med Chem Lett, 2013).

How the values were obtained:
Assay type in all cases: cell-based
[1] = target: Gastrin-releasing peptide receptor (Homo sapiens, UniProt P30550); test: Displacement of [125I]-Tyr4-BBN from human GRPR overexpressed in human T47D cells
[2] = target: T1, Neuropeptide Y receptor type 1 (Homo sapiens, UniProt P25929); test: Displacement of [125I]-NPY from Y1 receptor in human MCF7 cells in presence of 1 uM BBN
T1 sequence (P25929 whole entry): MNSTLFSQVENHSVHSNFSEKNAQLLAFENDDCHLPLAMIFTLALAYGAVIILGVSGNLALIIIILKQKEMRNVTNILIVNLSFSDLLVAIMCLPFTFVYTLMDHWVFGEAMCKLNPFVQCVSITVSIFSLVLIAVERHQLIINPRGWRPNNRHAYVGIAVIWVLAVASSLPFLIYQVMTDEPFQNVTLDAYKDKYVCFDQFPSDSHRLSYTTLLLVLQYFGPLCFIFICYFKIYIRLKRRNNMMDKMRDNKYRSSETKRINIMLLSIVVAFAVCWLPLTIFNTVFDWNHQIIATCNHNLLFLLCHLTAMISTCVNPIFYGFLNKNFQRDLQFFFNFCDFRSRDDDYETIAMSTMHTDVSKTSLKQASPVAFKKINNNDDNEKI

[3] = target: T1, Neuropeptide Y receptor type 1; test: Binding affinity to Y1 receptor in human SK-N-MC cells

Sequence of Gastrin-releasing peptide receptor (P30550 whole entry): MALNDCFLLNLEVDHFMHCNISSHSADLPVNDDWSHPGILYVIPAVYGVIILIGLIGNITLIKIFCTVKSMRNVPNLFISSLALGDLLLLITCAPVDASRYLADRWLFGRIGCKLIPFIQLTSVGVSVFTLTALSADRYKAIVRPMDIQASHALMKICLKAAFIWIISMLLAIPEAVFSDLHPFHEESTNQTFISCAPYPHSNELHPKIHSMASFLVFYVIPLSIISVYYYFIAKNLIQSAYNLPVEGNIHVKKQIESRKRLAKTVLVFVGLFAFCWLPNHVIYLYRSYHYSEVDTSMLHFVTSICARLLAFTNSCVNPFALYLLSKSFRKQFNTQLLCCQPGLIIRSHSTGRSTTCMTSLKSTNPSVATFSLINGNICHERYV

CC[C@H](C)[C@H](N)C(=O)N[C@@H](CC(N)=O)C(=O)N1CCC[C@H]1C(=O)N[C@@H](CCCCNC(=O)COCCOCCNC(=O)[C@H](CCCCNC(=O)COCC(=O)NCCOCCOCC(=O)NCC(=O)Nc1ccc(C(=O)N[C@@H](CCC(N)=O)C(=O)N[C@@H](Cc2c[nH]c3ccccc23)C(=O)N[C@@H](C)C(=O)N[C@H](C(=O)NCC(=O)N[C@@H](Cc2cnc[nH]2)C(=O)N[C@@H](CC(C)C)C(=O)N[C@@H](CCSC)C(N)=O)C(C)C)cc1)NC(=O)CN1CCN(CC(=O)O)CCN(CC(=O)O)CCN(CC(=O)O)CC1)C(=O)N[C@@H](Cc1ccc(O)cc1)C(=O)N[C@@H](CCCN=C(N)N)C(=O)N[C@@H](CC(C)C)C(=O)N[C@@H](CCCN=C(N)N)C(=O)N[C@@H](Cc1ccc(O)cc1)C(N)=O showed an IC50 [1] of 18 nM, an IC50 [2] of 80 nM and an IC50 [3] of 74 nM.
